Test results from US6342219B1 (Board of Regents, The University of Texas System, priority 1999, dated 2002).

Key:
[1] = test system: VEGFR2 in PAE/KDR cells; assay: VEGF-induced phosphorylation of VEGFR2 (immunoprecipitation and Western blot); type: cell-based, porcine; conditions: antibodies at 100 nM, 15 min
Procedure: PAE/KDR, PAE/FLT, and bEND.3 cells were grown to 80-90% confluency in 100 mm tissue dishes in media containing 5% serum. The cells were then serum starved for 24 hours in media containing 0.1% serum. After pretreatment with 100 […] in PBS for 30 min, the cells were incubated with 5 nM (200 ng/ml) VEGF165, 5 nM (100 ng/ml) bFGF (R&D Systems, Minneapolis, Minn.), or A673 tumor conditioned media in the presence or absence of control or test antibodies for additional 15 min.
The cells were then washed with ice-cold PBS containing 10 mM EDTA, 2 mM sodium fluoride, and 2 mM sodium orthovanadate and lysed in lysis buffer (50 mM Tris, 150 mM NaCl, 1% Nonidet P-40, 0.25% sodium deoxycholate, 0.1% CHAPS, 5 mM EDTA, 1.5 mM MgCl2, 2 mM sodium fluoride, 2 mM sodium orthovanadate, 10% glycerol and protease inhibitors (Complete Protease Inhibitor Cocktail tablets, Boehringer Mannheim)). The lysates were clarified by centrifugation and resulting supernatant used for immunoprecipitation.
The reactions using the chicken anti-FLT-1 antibody were subsequently incubated with a bridging goat anti-chicken antibody (Kirkegaard and Perry Laboratories, Inc.) for 1 h at 4° C. […]

[2] = biological target: T1, VEGF (Homo sapiens, UniProt P15692); assay: Competition ELISA (epitope groups); type: binding
T1 sequence (P15692 27-191 isoform P15692-4): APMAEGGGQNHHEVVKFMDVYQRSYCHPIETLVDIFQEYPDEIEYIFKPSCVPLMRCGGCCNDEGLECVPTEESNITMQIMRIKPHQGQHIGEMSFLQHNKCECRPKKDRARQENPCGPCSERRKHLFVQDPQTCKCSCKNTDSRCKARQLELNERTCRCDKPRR
Procedure: Competition ELISA studies were performed by first labeling the antibodies with peroxidase according to the manufacturer's instructions (EZ-Link Activated Peroxidase, Pierce). […] Approximately 0.5-2.0 μg/ml of peroxidase labeled test antibody was incubated on the plate in the presence of either buffer alone, an irrelevant IgG, or the other anti-VEGF competing antibodies in a 10-100 fold excess.
The assay was done in triplicate at least twice for each combination of labeled and competitor antibody. Two antibodies were considered to be in the same epitope group if they cross-blocked each other's binding by greater than 80%.

[3] = test system: human tumors from cancer patients; assay: Immunohistochemistry, endothelial cell staining, human tumors; type: binding; set-up: key: −, negative; +/−, very weak; 1+, weak; 2+, moderate; 3+, strong; 4+, very strong; conditions: acetone fixed frozen sections
Procedure: (§1) Tumors were snap frozen in liquid nitrogen and stored at −70° C. Frozen samples of tumor specimens from patients were obtained from the National Cancer Institute Cooperative Human Tissue Network (Southern Division, Birmingham, Ala.). Immunohistochemistry was performed as described by Burrows et al. (1995).

[4] = test system: HT1080 fibrosarcoma; assay: Treatment of established HT1080 xenografts (FIG. 5B); type: in vivo, nu/nu mice; conditions: 100 μg every two days
Procedure: (§2) FIG. 5A and FIG. 5B. […] Treatments (T) were 100 μg of the IgG given i.p., except for the initial treatment that consisted of 500 μg of the IgG given i.v. Mean tumor volume along with the SEM is shown. At the end of the study (day 116), the mice were sacrificed and the tumors dissected out and weighed. […] The mice were treated every other day as indicated (T). […] Mean tumor volume along with the SE is shown.
Male nu/nu mice bearing subcutaneous NCI-H358 tumors or HT1080 fibrosarcoma 200-400 mm^3 in size were injected i.p. with test or control antibodies. The NCI-H358 bearing mice were treated with 100 μg of antibodies per injection three times a week during the first week and twice a week during the second and third week. The mice were then switched to 50 μg per injection every five days. The HT1080 bearing mice were treated with 100 μg of the indicated antibody or saline every other day throughout the duration of the study. In both studies, mice were sacrificed when their tumors reached 2500 mm^3 in size or earlier if tumors began to ulcerate.

[5] = test system: NCI-H358 tumors; assay: Prolonged treatment of established NCI-H358 xenografts (FIG. 5A); type: in vivo, mice
Procedure: as §2
In this study, spontaneous regressions were less pronounced. […] The 3E7 treated mice began treatment with a mean tumor volume of 428 mm^3 and rose to a volume of 1326 mm^3 after approximately 14 wk, an increase of […] in volume.

[6] = test system: VEGF-mediated growth of ABAE cells; assay: Endothelial cell growth assay (MTS); type: cell-based, bovine
Procedure: ABAE cells were grown in the presence of the various indicated antibodies and 0.5 nM VEGF. Growth after 4 days was determined calorimetrically by the enzymatic conversion of MTS (Owen's reagent) to a yellow formazan. […] Background was determined by growing cells without VEGF or antibody and was subtracted from the control and sample wells.
Adult bovine aortic endothelial (ABAE) cells were plated into 96-well tissue culture plates at 1500 cells/well and grown in the presence of 0.5 nM human VEGF with the addition of the various sample and control antibodies. Control wells received media with or without VEGF.
After 4 days of incubation, the cells were quantified by an MTS (3-(4,5-dimethylthiazol-2-yl)-5-(3-carboxylmethoxyphenyl)-2-(4-sulfophenyl)-2H-tetrazolium, inner salt) conversion assay, where MTS conversion to a formazan is proportional to cell number and can be followed by absorbance at 490 nm (Cell Titer 96 AQueous One Solution Cell Proliferation Assay, Promega, Madison, Wis.). The assay was performed according to the manufacturer's instructions.
Cell growth was estimated by subtracting the MTS conversion in cultures to which VEGF was not added. Results were expressed as a percentage of the MTS conversion in control cultures to which only VEGF was added (Buttke et al., 1993).

[7] = test system: human tumor xenografts (NCI-H358, NCI-H460, HT29, L540); assay: Immunohistochemistry, endothelial cell staining, human tumor xenografts; type: binding, human tumors grown in SCID mice; set-up: key: −, negative; +/−, very weak; 1+, weak; 2+, moderate; 3+, strong; 4+, very strong; conditions: acetone fixed frozen sections
Procedure: Guinea pig line 10 hepatocellular carcinoma tumor cells (obtained from Dr. Ronald Neuman, NIH, Bethesda, Md.) were grown in strain 2 guinea pigs (NCI, Bethesda, Md.). The human tumors NCI-H358 non-small cell lung carcinoma (NSCLC), NCI-H460 NSCLC (both obtained from Dr. Adi Gazdar, UT Southwestern, Dallas, Tex.), HT29 colon adenocarcinoma (American Type Culture Collection), and L540CY Hodgkin's lymphoma (obtained from Professor V. Diehl, Cologne, Germany) were grown as xenografts in CB17 SCID mice (Charles River, Wilmington, Mass.).
as §1

[8] = test system: KDR on ABAE cells; assay: 125I-VEGF binding studies on KDR expressing endothelial cells; set-up: species or system bovine

Substance: 2C3: anti-VEGF monoclonal antibody, IgG2a, k, produced by hybridoma ATCC PTA 1595; blocks VEGF binding to VEGFR2 but not VEGFR1 [Clone 2C3]
- Blocking of VEGF-induced phosphorylation of VEGFR2 [1]: block
- Cross-reactivity of 2C3 and A4.6.1 in competition studies [2]: not cross-reactive
- Epitope Group ([2]; determined through competitive ELISA): 4
- Endothelial Cell Staining, Hu Tumor (various) [3]: −
- Effect on growth of HT1080 tumors [4]: arrested the growth of the tumors
- Mean tumor volume after approximately 14 wk of treatment ([5]; 100 μg, at start 480 mm^3 (2C3), 428 mm^3 (3E7)): 84 mm^3
- Decrease in mean tumor volume ([5]; after approximately 14 wk): approximately 80%
- Mean tumor weight at the end of the study ([5]; day 116): 0.054 g
- Blocks VEGF-induced proliferation [6]: Yes
- Endothelial Cell Staining, Xenograft (various) [7]: −
- Blocking of 125I-VEGF binding to KDR [8]: blocks VEGF from binding to KDR in a concentration dependent manner
